# “And” between values parts separate entries of the source, which are not always exact repeats. Equal values may be shown once. Bridges are numbered along the chain shown (N, C = ends). Where no end group is shown, it is not given here.
# Assays:
# [1] = tested on: Claudin-5 at tight junction of mouse brain endothelial bEnd.3 cells; experiment: Claudin-5 immunocytochemistry at tight junction in mouse brain endothelial cell cultures; assay type: cell-based
# Procedure: To understand the effect of NX218 on the TEER and permeability of mouse brain endothelial cells in examples 3 and 4, the levels of the tight junction protein Claudin-5 were assessed using immunocytochemistry.
# Mouse brain endothelial cells (bEnd.3, American Type Culture Collection) were cultured in DMEM supplemented with 10% fetal FBS and 2 mM sodium pyruvate in a 5% CO2 incubator at 37° C.
# bEnd.3 cells were seeded on 1% fibronectin-coated Nunc Lab-Tek II Chamber Slides in culture medium (1×10^5 cells per well in 300 μL). Two days after seeding, cells were treated with vehicle or NX218 (1, 10 and 100 μM) for 1, 2 or 3 days. Cells were then fixed for 10 min at room temperature (RT) with 4% paraformaldehyde in phosphate buffered saline (PBS), washed twice with PBS and incubated with 5% normal goat serum and 0.05% Triton X-100 in PBS for 1 h at RT before overnight incubation with polyclonal rabbit anti-claudin-5 ( 1/100; 34-1600, Invitrogen) at 4° C. Cells were then washed three times with PBS and incubated with goat anti-rabbit Cy3 secondary antibody ( 1/500; ab6939, Abcam) for 2 h at RT and counterstained with Hoechst 33258 to visualize nuclei. The slide was removed from the chamber and mounted with Aqua Poly/Mount before visualization by confocal laser scanning/microscopy. Claudin-5 immunoreactivity (intensity) at membrane localization was finally quantified to evaluate Claudin-5 protein levels. The data are expressed as a percentage of the control condition.
# A second independent experiment using the protocol described at example 5 was performed. Pooling the data from the 2 experiments (the first experiment was done in triplicate, the 2nd in duplicate, n=5) improves the statistical power and allow to reach statistical significance for a tendency observed at 72 hours timepoint.
# [2] = tested on: mouse brain endothelial bEnd.3 cells; experiment: Transendothelial electrical resistance (TEER) of mouse brain endothelial cell monolayer on Transwell inserts; assay type: cell-based
# Procedure: To determine the effect of NX218 on transendothelial electrical resistance (TEER) of mouse brain endothelial cells, cells were grown on a semi-permeable membrane inserted in culture wells in presence or absence of NX218 and the TEER was recorded using electrodes placed on each side of the membrane and a resistance meter.
# Mouse brain endothelial cells (bEnd.3, American Type Culture Collection) were cultured in Dulbecco's modified Eagle's Medium (DMEM) supplemented with 10% fetal bovine serum (FBS) and 2 mM sodium pyruvate in a 5% CO2 incubator at 37° C.
# bEnd.3 cells were grown on 6.5-mm-diameter, 0.4-μm-pore, polyester membrane HTS Transwell inserts (5×10^4 cells per well containing 200 μL and 800 μL of culture medium in the apical and basolateral compartments respectively). Three days after seeding, cells were treated with vehicle or NX218 (1, 10 and 100 μM) for 1, 2 or 3 days. TEER values were measured using an EVOM resistance meter fitted with “chopstick” electrodes. One electrode was placed in the apical chamber and another one in the basolateral chamber. Before measurements, chambers were replaced with fresh medium.
substance,measurement,setting,value
W-S-G-W-S-S-C-S-R-S-C-G (WSGWSSCSRSCG; disulfide 7-11 (inferred)) [NX218],"Claudin-5 levels, result in words","[1]; 24 hours, NX218 at 10 and 100 μM",significant increase in Claudin-5 levels
same,Expression of Claudin-5 at tight junction,"[1]; FIG. 3, 24-hour treatment",increases the expression of Claudin-5 at tight junction
same,Expression of Claudin-5 at tight junction,"[1]; FIG. 5, 72-hour treatment",increases the expression of Claudin-5 at tight junction
same,"Expression of Claudin-5 at tight junction, Average","[1]; NX218 1 μM, 24 hours, bEnd.3, average of N1-N6",112.5 % of Control
same,Expression of Claudin-5 at tight junction,"[1]; NX218 1 μM, 24 hours, bEnd.3, individual replicates N1-N6",108.1 % of Control and 99.96 % of Control and 119.3 % of Control and 99.61 % of Control and 140.4 % of Control and 107.5 % of Control
same,"Expression of Claudin-5 at tight junction, Average","[1]; NX218 1 μM, 48 hours, bEnd.3, average of N1-N6",80.63 % of Control
same,Expression of Claudin-5 at tight junction,"[1]; NX218 1 μM, 48 hours, bEnd.3, individual replicates N1-N6",76.07 % of Control and 52.45 % of Control and 76.37 % of Control and 93.88 % of Control and 102.1 % of Control and 82.89 % of Control
same,"Expression of Claudin-5 at tight junction, Average","[1]; NX218 1 μM, 72 hours, bEnd.3, first experiment (Table 9), average of N1-N4",81.69 % of Control
same,Expression of Claudin-5 at tight junction,"[1]; NX218 1 μM, 72 hours, bEnd.3, first experiment (Table 9), individual replicates N1-N4",77.15 % of Control and 90.23 % of Control and 103.8 % of Control and 55.53 % of Control
same,"Expression of Claudin-5 at tight junction, Average","[1]; NX218 1 μM, 72 hours, bEnd.3, pooled data of 2 experiments (Table 12), average of N1-N7",96.00 % of Control
same,Expression of Claudin-5 at tight junction,"[1]; NX218 1 μM, 72 hours, bEnd.3, pooled data of 2 experiments (Table 12), individual replicates N1-N7",86.80 % of Control and 107.60 % of Control and 99.90 % of Control and 104.20 % of Control and 92.70 % of Control and 103.50 % of Control and 77.10 % of Control
same,"Expression of Claudin-5 at tight junction, Average","[1]; NX218 10 μM, 24 hours, bEnd.3, average of N1-N6",151.7 % of Control
same,Expression of Claudin-5 at tight junction,"[1]; NX218 10 μM, 24 hours, bEnd.3, individual replicates N1-N6",126.9 % of Control and 154.4 % of Control and 137 % of Control and 121.3 % of Control and 169.4 % of Control and 200.9 % of Control
same,"Expression of Claudin-5 at tight junction, Average","[1]; NX218 10 μM, 48 hours, bEnd.3, average of N1-N6",97.8 % of Control
same,Expression of Claudin-5 at tight junction,"[1]; NX218 10 μM, 48 hours, bEnd.3, individual replicates N1-N6",66.36 % of Control and 83.18 % of Control and 120.8 % of Control and 145.7 % of Control and 97.51 % of Control and 73.25 % of Control
same,"Expression of Claudin-5 at tight junction, Average","[1]; NX218 10 μM, 72 hours, bEnd.3, first experiment (Table 9), average of N1-N4",70.23 % of Control
same,Expression of Claudin-5 at tight junction,"[1]; NX218 10 μM, 72 hours, bEnd.3, first experiment (Table 9), individual replicates N1-N4",56.03 % of Control and 94.63 % of Control and 58.42 % of Control and 71.86 % of Control
same,"Expression of Claudin-5 at tight junction, Average","[1]; NX218 10 μM, 72 hours, bEnd.3, pooled data of 2 experiments (Table 12), average of N1-N7",97.80 % of Control
same,Expression of Claudin-5 at tight junction,"[1]; NX218 10 μM, 72 hours, bEnd.3, pooled data of 2 experiments (Table 12), individual replicates N1-N7",71.70 % of Control and 116.80 % of Control and 122.30 % of Control and 113.50 % of Control and 97.80 % of Control and 75.30 % of Control and 87.00 % of Control
same,"Expression of Claudin-5 at tight junction, Average","[1]; NX218 100 μM, 24 hours, bEnd.3, average of N1-N6",180.5 % of Control
same,Expression of Claudin-5 at tight junction,"[1]; NX218 100 μM, 24 hours, bEnd.3, individual replicates N1-N6",173.3 % of Control and 212.5 % of Control and 249.5 % of Control and 129 % of Control and 161.7 % of Control and 157.1 % of Control
same,"Expression of Claudin-5 at tight junction, Average","[1]; NX218 100 μM, 48 hours, bEnd.3, average of N1-N6",98.79 % of Control
same,Expression of Claudin-5 at tight junction,"[1]; NX218 100 μM, 48 hours, bEnd.3, individual replicates N1-N6",88.39 % of Control and 55.18 % of Control and 80.87 % of Control and 122.7 % of Control and 115.5 % of Control and 130.1 % of Control
same,"Expression of Claudin-5 at tight junction, Average","[1]; NX218 100 μM, 72 hours, bEnd.3, first experiment (Table 9), average of N1-N4",106.6 % of Control
same,Expression of Claudin-5 at tight junction,"[1]; NX218 100 μM, 72 hours, bEnd.3, first experiment (Table 9), individual replicates N1-N4",121.8 % of Control and 116 % of Control and 81.03 % of Control and 107.7 % of Control
same,"Expression of Claudin-5 at tight junction, Average","[1]; NX218 100 μM, 72 hours, bEnd.3, pooled data of 2 experiments (Table 12), average of N1-N7",119.10 % of Control
same,Expression of Claudin-5 at tight junction,"[1]; NX218 100 μM, 72 hours, bEnd.3, pooled data of 2 experiments (Table 12), individual replicates N1-N7",134.20 % of Control and 124.40 % of Control and 109.30 % of Control and 120.30 % of Control and 130.70 % of Control and 105.10 % of Control and 109.40 % of Control
same,"Claudin-5 levels, result in words","[1]; NX218 at 100 μM, pooled experiments, 72 hours",Increases of Claudin-5 levels were maintained for at-least 72 hours
same,"Claudin-5 levels, result in words","[1]; after 2 or 3 days treatment (Tables 8, 9)",levels were similar between control and NX218 conditions
same,"Resistance (TEER), result in words","[2]; 10 and 100 μM for 1, 2 or 3 days, compared with vehicle-treated monolayer",significantly increased in a dose dependent manner
same,TEER,"[2]; FIG. 1, 1, 10, 100 μM for 24 h, 48 h or 72 h",increases the transendothelial electrical resistance of mouse brain endothelial cell monolayer in a dose-dependent manner

# Reference: patent US20250152660A1, “SCO-spondin-derived polypeptides for treating biological barriers dysfunction” (AXOLTIS PHARMA, priority 2021, published 2025)
